# In PubChem BioAssay AID330 (DTP/NCI, 2004):
# “And” between values parts separate entries of the source, which are not always exact repeats. Equal entries are not always repeated. Inconclusive results and toxic doses are left out.
# Test system: P388 leukemia ip, CD2F1 mice, survival T/C
# Test: NCI In Vivo Anticancer Drug Screen. Data for tumor model P388 Leukemia (intraperitoneal) in CD2F1 (CDF1) mice
# Conditions: endpoint: median survival time, higher = longer survival
# In short: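 Mice carrying the transplanted tumor received test compound or vehicle. Survival was recorded in each group, and the value is the treated-group measurement divided by that of the vehicle-treated control group.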
# [1] = dose: 6.25 mg/kg/injection, schedule: Q01DX009 (ip), vehicle: saline with Tween-80
# [2] = dose: 25.0 mg/kg/injection, schedule: Q01DX009 (ip), vehicle: Klucel (hydroxypropylcellulose) (HPC)
# [3] = dose: 50.0 mg/kg/injection, schedule: Q01DX009 (ip), vehicle: Klucel (hydroxypropylcellulose) (HPC)
# [4] = dose: 60.0 mg/kg/injection, schedule: Q01DX005 (ip), vehicle: saline with Tween-80
# [5] = dose: 120.0 mg/kg/injection, schedule: Q01DX005 (ip), vehicle: saline with Tween-80
# [6] = dose: 240.0 mg/kg/injection, schedule: Q01DX005 (ip), vehicle: saline with Tween-80
# [7] = dose: 50.0 mg/kg/injection, schedule: Q01DX009 (ip), vehicle: saline with Tween-80
# [8] = dose: 100.0 mg/kg/injection, schedule: Q01DX009 (ip), vehicle: saline with Tween-80
# [9] = dose: 200.0 mg/kg/injection, schedule: Q01DX009 (ip), vehicle: saline with Tween-80
# [10] = dose: 100.0 mg/kg/injection, schedule: Q01DX009 (ip), vehicle: Klucel (hydroxypropylcellulose) (HPC)
# [11] = dose: 200.0 mg/kg/injection, schedule: Q01DX009 (ip), vehicle: Klucel (hydroxypropylcellulose) (HPC)
# [12] = dose: 400.0 mg/kg/injection, schedule: Q01DX009 (ip), vehicle: Klucel (hydroxypropylcellulose) (HPC)
# [13] = dose: 25.0 mg/kg/injection, schedule: Q01DX005 (ip), vehicle: Klucel (hydroxypropylcellulose) (HPC)
# [14] = dose: 50.0 mg/kg/injection, schedule: Q01DX005 (ip), vehicle: Klucel (hydroxypropylcellulose) (HPC)
# [15] = dose: 100.0 mg/kg/injection, schedule: Q01DX005 (ip), vehicle: Klucel (hydroxypropylcellulose) (HPC)
structure (smiles),measurement,setting,value
CC(C)CCCCCCCCCCCCC(=O)NCC(=O)NC1C(CO)OC(Nc2ncnc3nc[nH]c23)C(O)C1O (stereo not drawn),T/C,"dose: 0.13 mg/kg/injection, schedule: Q01DX009 (ip), vehicle: other",114 % of control
same,T/C,"dose: 0.5 mg/kg/injection, schedule: Q01DX009 (ip), vehicle: other",161 % of control
same,T/C,"dose: 1.0 mg/kg/injection, schedule: Q01DX009 (ip), vehicle: other",105 % of control
same,T/C,"dose: 2.0 mg/kg/injection, schedule: Q01DX009 (ip), vehicle: other",89 % of control
O=C1C(CC=C(Cl)Cl)=C(OC2OC(CO)C(O)C(O)C2O)C(=O)c2ccccc21 (stereo not drawn),T/C,"dose: 3.12 mg/kg/injection, schedule: Q01DX009 (ip), vehicle: saline with Tween-80",103 % of control
same,T/C,[1],109 % of control
same,T/C,"dose: 12.5 mg/kg/injection, schedule: Q01DX009 (ip), vehicle: saline with Tween-80",111 % of control
CCOCC1OCCCO1,T/C,"dose: 60.0 mg/kg/injection, schedule: Q01DX005 (ip), vehicle: saline",104 % of control
same,T/C,"dose: 120.0 mg/kg/injection, schedule: Q01DX005 (ip), vehicle: saline",103 % of control
same,T/C,"dose: 240.0 mg/kg/injection, schedule: Q01DX005 (ip), vehicle: saline",103 % of control
CCCCCCCCCC(C)CC(=O)NCCCN(C)CCCCN(C)C (stereo not drawn) (tested in a mixture with another compound),T/C,"dose: 0.78 mg/kg/injection, schedule: Q01DX009 (ip), vehicle: saline with Tween-80",91 % of control
same,T/C,"dose: 1.56 mg/kg/injection, schedule: Q01DX009 (ip), vehicle: saline with Tween-80",94 % of control
same,T/C,"dose: 3.13 mg/kg/injection, schedule: Q01DX009 (ip), vehicle: saline with Tween-80",97 % of control
same,T/C,[1],100 % of control
Cc1ccc(S(=O)(=O)NN=C2C(C)C(c3ccccc3)NC(c3ccccc3)C2C)cc1 (stereo not drawn),T/C,"dose: 200.0 mg/kg/injection, schedule: Q01DX001 (ip), vehicle: Klucel (hydroxypropylcellulose) (HPC)",88 % of control
Cn1c(=O)c2c(nc(Br)n2C)n(C)c1=O,T/C,[2],94 % of control
same,T/C,[3],109 % of control
COC(=O)c1cc(-c2ccco2)c2c(=O)n(-c3ccccc3)[nH]c2n1,T/C,[4],103 % of control
same,T/C,[5],105 % of control
same,T/C,[6],94 % of control
CCC1(N(C)C)C(=O)NC(=O)N(C2CCCCC2)C1=O (stereo not drawn),T/C,"dose: 60.0 mg/kg/injection, schedule: Q01DX005 (ip), vehicle: Klucel (hydroxypropylcellulose) (HPC)",98 % of control
same,T/C,"dose: 120.0 mg/kg/injection, schedule: Q01DX005 (ip), vehicle: Klucel (hydroxypropylcellulose) (HPC)",96 % of control
same,T/C,"dose: 240.0 mg/kg/injection, schedule: Q01DX005 (ip), vehicle: Klucel (hydroxypropylcellulose) (HPC)",91 % of control
CC(=O)OCCOCNC(=S)NCc1ccco1,T/C,[4],106 % of control
same,T/C,[5],102 % of control
same,T/C,[6],98 % of control
FC(F)(F)c1cc(-n2c(-c3ccccc3)nc(=S)c3c2CCCC3)cc(C(F)(F)F)c1,T/C,[7],100 % of control
same,T/C,[8],95 % of control
same,T/C,[9],94 % of control
CCCN(CCC)CCCC#N,T/C,"dose: 25.0 mg/kg/injection, schedule: Q01DX009 (ip), vehicle: saline with Tween-80",90 % of control
same,T/C,[7],90 % of control
same,T/C,[8],100 % of control
O=c1[nH]c(=O)c2sc3ncccc3c2[nH]1,T/C,"dose: 6.25 mg/kg/injection, schedule: Q01DX009 (ip), vehicle: saline",119 % of control
same,T/C,"dose: 12.5 mg/kg/injection, schedule: Q01DX009 (ip), vehicle: saline",100 % of control
same,T/C,"dose: 25.0 mg/kg/injection, schedule: Q01DX009 (ip), vehicle: saline",101 % of control
CC1(O)COC1(c1ccccc1)c1ccccc1 (stereo not drawn),T/C,[4],93 % of control
same,T/C,[5],96 % of control
same,T/C,[6],93 % of control
OCC1OC(n2cnc3c(NO)ncnc32)C(O)C1O (stereo not drawn),T/C,"dose: 12.5 mg/kg/injection, schedule: Q01DX009 (ip), vehicle: Klucel (hydroxypropylcellulose) (HPC)",102 % of control
same,T/C,[2],100 % of control
same,T/C,[3],99 % of control and 109 % of control and 110 % of control
same,T/C,[10],100 % of control and 107 % of control and 113 % of control
same,T/C,[11],103 % of control and 113 % of control and 97 % of control
same,T/C,[12],102 % of control and 119 % of control
O=C(O[C@H]1CCN2C[C@H]3C[C@H](CN4C(=O)CCC[C@H]34)[C@@H]2C1)c1ccc(O)cc1,T/C,"dose: 6.25 mg/kg/injection, schedule: Q01DX005 (ip), vehicle: Klucel (hydroxypropylcellulose) (HPC)",103 % of control
same,T/C,"dose: 12.5 mg/kg/injection, schedule: Q01DX005 (ip), vehicle: Klucel (hydroxypropylcellulose) (HPC)",106 % of control
same,T/C,[13],104 % of control
Cc1coc2c1CC1OC1(C)CCC1OC1(C)C2 (stereo not drawn),T/C,"dose: 12.5 mg/kg/injection, schedule: Q01DX005 (ip), vehicle: Klucel + Tween-80",96 % of control
same,T/C,"dose: 25.0 mg/kg/injection, schedule: Q01DX005 (ip), vehicle: Klucel + Tween-80",98 % of control
same,T/C,"dose: 50.0 mg/kg/injection, schedule: Q01DX005 (ip), vehicle: Klucel + Tween-80",99 % of control
same,T/C,"dose: 100.0 mg/kg/injection, schedule: Q01DX005 (ip), vehicle: Klucel + Tween-80",106 % of control
CC1(C)N=C(N)N=C(N)N1c1cccc(CNc2ccc(S(N)(=O)=O)cc2)c1,T/C,"dose: 7.5 mg/kg/injection, schedule: Q01DX005 (ip), vehicle: Klucel (hydroxypropylcellulose) (HPC)",102 % of control
same,T/C,"dose: 15.0 mg/kg/injection, schedule: Q01DX005 (ip), vehicle: Klucel (hydroxypropylcellulose) (HPC)",100 % of control
same,T/C,"dose: 30.0 mg/kg/injection, schedule: Q01DX005 (ip), vehicle: Klucel (hydroxypropylcellulose) (HPC)",102 % of control
CC1(C)CC2(OC2c2ccc([N+](=O)[O-])cc2)C(=O)c2ccccc21 (stereo not drawn),T/C,"dose: 0.78 mg/kg/injection, schedule: Q01DX009 (ip), vehicle: Klucel (hydroxypropylcellulose) (HPC)",87 % of control
same,T/C,"dose: 1.56 mg/kg/injection, schedule: Q01DX009 (ip), vehicle: Klucel (hydroxypropylcellulose) (HPC)",88 % of control
same,T/C,"dose: 3.13 mg/kg/injection, schedule: Q01DX009 (ip), vehicle: Klucel (hydroxypropylcellulose) (HPC)",90 % of control
same,T/C,[7],100 % of control
same,T/C,[8],90 % of control
same,T/C,[9],95 % of control
same,T/C,[12],93 % of control
O=C(N/C(=C/c1ccccc1)C(=O)N1CCN(C(=O)/C(=C\c2ccccc2)NC(=O)c2ccccc2)CC1)c1ccccc1,T/C,"dose: 50.0 mg/kg/injection, schedule: Q01DX005 (ip), vehicle: saline with Tween-80",93 % of control
same,T/C,"dose: 100.0 mg/kg/injection, schedule: Q01DX005 (ip), vehicle: saline with Tween-80",92 % of control
same,T/C,"dose: 200.0 mg/kg/injection, schedule: Q01DX005 (ip), vehicle: saline with Tween-80",93 % of control
Cc1cc(=O)n(C)c2ccc([N+](=O)[O-])cc12,T/C,[3],106 % of control
same,T/C,[10],108 % of control
same,T/C,[11],108 % of control
CO[C@@H]1C2=CC=CC=C[C@H]2n2c(=O)n(-c3ccccc3)c(=O)n21,T/C,[14],102 % of control
same,T/C,[15],103 % of control
O=c1[nH]c(=O)c2nc(-c3cccnc3)cnc2[nH]1,T/C,"dose: 50.0 mg/kg/injection, schedule: Q01DX009 (ip), vehicle: saline",103 % of control and 120 % of control
O=c1c2c([nH]c3c4c(ccc13)NCCC4)CCC2,T/C,"dose: 50.0 mg/kg/injection, schedule: Q04DX002 (ip), vehicle: saline with Tween-80",95 % of control
same,T/C,"dose: 100.0 mg/kg/injection, schedule: Q04DX002 (ip), vehicle: saline with Tween-80",94 % of control
same,T/C,"dose: 200.0 mg/kg/injection, schedule: Q04DX002 (ip), vehicle: saline with Tween-80",92 % of control
c1csc(-c2ccn[nH]2)c1,T/C,"dose: 15.0 mg/kg/injection, schedule: Q01DX005 (ip), vehicle: saline with Tween-80",100 % of control
same,T/C,"dose: 30.0 mg/kg/injection, schedule: Q01DX005 (ip), vehicle: saline with Tween-80",100 % of control
same,T/C,[4],116 % of control and 91 % of control
CCCCC(CC)C(=O)OCCNC(=O)C(C)OC(=O)C(CC)CCCC (stereo not drawn),T/C,[13],105 % of control
same,T/C,[14],102 % of control
same,T/C,[15],95 % of control
same,T/C,"dose: 200.0 mg/kg/injection, schedule: Q01DX005 (ip), vehicle: Klucel (hydroxypropylcellulose) (HPC)",105 % of control
COc1ccc(-c2cc3cc(OC)c(OC)cc3c[n+]2C)cc1OC,T/C,"dose: 25.0 mg/kg/injection, schedule: Q04DX003 (ip), vehicle: saline",96 % of control
same,T/C,"dose: 50.0 mg/kg/injection, schedule: Q04DX003 (ip), vehicle: saline",94 % of control
same,T/C,"dose: 100.0 mg/kg/injection, schedule: Q04DX003 (ip), vehicle: saline",104 % of control
